US20060046966A1, “Antipicornaviral compounds and compositions, their pharmaceutical uses, and materials for their synthesis” (Agouron Pharmaceuticals, Inc., priority 1998, published 2006)

Tests used:
HRV (30) = test: Antirhinoviral H1-HeLa cell culture assay, HRV serotype 30; type: cell-based; details: Human rhinovirus sp., H1-HeLa cells, XTT
Method: (§1) In this cell protection assay, the ability of compounds to protect cells against HRV infection was measured by the XTT dye reduction method, which is described in Weislow et al., J. Natl. Cancer Inst. 1989, vol. 81, 577-586.
(§2) H1-HeLa cells were infected with HRV-14 at a multiplicity of infection (m.o.i.) of 0.13 (virus particles/cell) or mock-infected with medium only. Infected or mock-infected cells were resuspended at 8×10^5 cells per mL, and incubated with appropriate concentrations of the compounds to be tested. Two days later, XTT/PMS was added to test plates and the amount of formazan produced was quantified spectrophotometrically at 450/650 nm. The EC50 value was calculated as the concentration of compound that increased the percentage of formazan production in compound-treated, virus-infected cells to 50% of that produced by compound-free, mock-infected cells. The 50% cytotoxic dose (CC50) was calculated as the concentration of compound that decreased the percentage of formazan produced in compound-treated, mock-infected cells to 50% of that produced by compound-free, mock-infected cells. The therapeutic index (TI) was calculated by dividing the CC50 value by the EC50 value. […]

[1] = test system: enterovirus type 70 (EV 70); test: Anti-enteroviral cell culture assay, EV 70; type: cell-based; details: Enterovirus D, MRC5, 96 h; Strain EV-70; MRC-5 cells; four days; XTT
Method: Echovirus type 11 (EV 11) and enterovirus type 70 (EV 70) were purchased from ATCC (Rockville, Md.). Virus stocks were propagated and antiviral assays were performed in MRC-5 cells (ATCC). Cells were grown in minimal essential medium with 10% fetal bovine serum (Life Technologies, Gaithersburg, Md.).
The ability of compounds to protect cells against either EV 11 or EV 70 infection was measured by the XTT dye reduction method (Weislow et al., J. Natl. Cancer Inst. 1989, vol. 81, 577-586). MRC-5 cells were infected with EV 11 or EV 70 at an m.o.i. of 0.003 or 0.004, respectively, or mock-infected with medium only. Infected or uninfected cells were added at 1×10^4 cells per well and incubated with appropriate concentrations of compound. Four days later, XTT/PMS was added to test plates, and the amount of formazan produced was quantified spectrophotometrically at 450/650 nm. The EC50 was calculated as the concentration of compound that increased the formazan production in compound-treated, virus-infected cells to 50% of that produced by compound-free, uninfected cells. The 50% cytotoxic dose (CC50) was calculated as the concentration of compound that decreased formazan production in compound-treated, uninfected cells to 50% of that produced in compound-free, uninfected cells. The therapeutic index (TI) was calculated by dividing the CC50 by the EC50. […]

HRV (16) = test: Antirhinoviral H1-HeLa cell culture assay, HRV serotype 16; type: cell-based; details: Human rhinovirus sp., H1-HeLa cells, XTT
Method: as §1
(§3) H1-HeLa cells were infected with HRV-14 at a multiplicity of infection (m.o.i.) of 0.13 (virus particles/cell) or mock-infected with medium only. Infected or mock-infected cells were resuspended at 8×10^5 cells per mL, and incubated with appropriate concentrations of the compounds to be tested. Two days later, XTT/PMS was added to test plates and the amount of formazan produced was quantified spectrophotometrically at 450/650 nm. The EC50 value was calculated as the concentration of compound that increased the percentage of formazan production in compound-treated, virus-infected cells to 50% of that produced by compound-free, mock-infected cells. The 50% cytotoxic dose (CC50) was calculated as the concentration of compound that decreased the percentage of formazan produced in compound-treated, mock-infected cells to 50% of that produced by compound-free, mock-infected cells. The therapeutic index (TI) was calculated by dividing the CC50 value by the EC50 value.
(§4) All strains of human rhinovirus (HRV) for use in this assay were purchased from American Type Culture Collection (ATCC), except for HRV serotype-14 (produced from the infectious cDNA clone constructed by Dr. Robert Rueckert, Institute for Molecular Virology, University of Wisconsin, Madison, Wis.). HRV stocks were propagated and viral assays were performed in H1-HeLa cells (ATCC). Cells were grown in minimal essential medium with 10% fetal bovine serum, available from Life Technologies (Gaithersburg, Md.).
(§5) The compounds were tested against control compounds WIN 51711, WIN 52084, and WIN 54954 (obtained from Sterling-Winthrop Pharmaceuticals), Pirodavir (obtained from Janssen Pharmaceuticals), and Pleconaril (prepared according to the method described in Diana et al., J. Med. Chem 1995, vol. 38, 1355). […]

HRV (38) = test: Antirhinoviral H1-HeLa cell culture assay, HRV serotype 38; type: cell-based; details: Human rhinovirus sp., H1-HeLa cells, XTT
Method: as §1, §2

HRV (2) = test: Antirhinoviral H1-HeLa cell culture assay, HRV serotype 2; type: cell-based, human rhinovirus; details: Human rhinovirus sp., H1-HeLa, H1-HeLa cells, XTT
Method: as §1, §3, §4
(§6) The compounds were tested against control compounds WIN 51711, WIN 52084, and WIN 54954 (obtained from Sterling-Winthrop Pharmaceuticals), Pirodavir (obtained from Janssen Pharmaceuticals), and Pleconaril (prepared according to the method described in Diana et al., J. Med. Chem 1995, vol. 38, 1355). Antiviral data obtained for the test compounds are shown in Tables 1 and 3, where all data are for HRV serotype-14 unless otherwise noted in parentheses.

HRV (9) = test: Antirhinoviral H1-HeLa cell culture assay, HRV serotype 9; type: cell-based, human rhinovirus; details: Human rhinovirus sp., H1-HeLa cells, XTT
Method: as §1, §3, §4, §5

HRV (39) = test: Antirhinoviral H1-HeLa cell culture assay, HRV serotype 39; type: cell-based, human rhinovirus; details: Human rhinovirus sp., H1-HeLa cells, XTT
Method: as §1, §3, §4, §5

HRV (89) = test: Antirhinoviral H1-HeLa cell culture assay, HRV serotype 89; type: cell-based, human rhinovirus; details: Human rhinovirus sp., H1-HeLa cells, XTT
Method: as §1, §3, §4, §6

Work on `CCOC(=O)/C=C/[C@H](C[C@@H]1CCNC1=O)NC(=O)[C@@H](CC(=O)[C@@H](NC(=O)c1cc(C)on1)C(C)C)Cc1ccc(F)cc1` [Compound B-2, Ethyl-3-{(5′-Methylisoxazole-3′-carbonyl)-L-ValΨ(COCH2)-L-(4-F-Phe)-L-((S)-Pyrrol-Ala)}-E-Propenoate] yielded an EC50 (HRV (30)) of 40 nM, an EC50 [1] of 3 nM and an EC50 (HRV (16)) of 10 nM. The EC50 (HRV (38)) was 70 nM, the EC50 (HRV (2)) was 20 nM and the EC50 (HRV (9)) was 6 nM. For the same compound, the EC50 (HRV (39)) was 50 nM and the EC50 (HRV (89)) was 9 nM.
